Results on three compounds are retold here after ChEMBL document CHEMBL1201862, “PubChem BioAssay data set” (2004).

For one assay, the system named is HT-1080. Nature of the assay: cytotoxicity in HT1080 fibrosarcoma cells, cell-based, fluorescence readout (AID 620). It is filed as functional. Conditions: Homo sapiens.
The target in assay [1] is T1, Luciferin 4-monooxygenase (Photinus pyralis, UniProt P08659). Nature of the assay: firefly luciferase enzyme inhibitors, dose response, biochemical, luminescence (AID 1891).
T1 sequence (P08659 whole entry): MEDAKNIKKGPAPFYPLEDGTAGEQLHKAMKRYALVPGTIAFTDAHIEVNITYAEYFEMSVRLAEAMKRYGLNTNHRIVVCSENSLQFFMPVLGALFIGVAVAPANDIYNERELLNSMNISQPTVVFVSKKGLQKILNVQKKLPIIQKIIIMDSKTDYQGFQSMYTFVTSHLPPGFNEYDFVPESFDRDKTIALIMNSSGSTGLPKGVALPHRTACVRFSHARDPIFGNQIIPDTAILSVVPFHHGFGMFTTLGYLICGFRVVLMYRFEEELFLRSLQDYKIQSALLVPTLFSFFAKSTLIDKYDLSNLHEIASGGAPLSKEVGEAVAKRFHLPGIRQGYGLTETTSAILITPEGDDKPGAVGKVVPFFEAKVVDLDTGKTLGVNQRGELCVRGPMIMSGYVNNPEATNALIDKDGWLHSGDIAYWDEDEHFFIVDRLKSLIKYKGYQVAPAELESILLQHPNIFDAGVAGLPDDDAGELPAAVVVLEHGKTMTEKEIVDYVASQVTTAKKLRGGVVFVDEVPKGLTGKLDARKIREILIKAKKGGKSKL
Assay [2] can be described thus: Luminescence Cell-Based Dose Confirmation HTS to Identify Inhibitors of Platelet Dense Granule Release. [Related pubchem assays: 1663 (Primary HTS), 1678 (Summary of Project)]. The format is functional.
For assay [3], the target named is T1, Luciferin 4-monooxygenase. Nature of the assay: Counter Screen for Luciferase-based Assay Positives. [Related pubchem assays: 620, 618, 411 ].
In assay [4] the target is T2, Sentrin-specific protease 7 (Homo sapiens, UniProt Q9BQF6).
T2 sequence (Q9BQF6 whole entry): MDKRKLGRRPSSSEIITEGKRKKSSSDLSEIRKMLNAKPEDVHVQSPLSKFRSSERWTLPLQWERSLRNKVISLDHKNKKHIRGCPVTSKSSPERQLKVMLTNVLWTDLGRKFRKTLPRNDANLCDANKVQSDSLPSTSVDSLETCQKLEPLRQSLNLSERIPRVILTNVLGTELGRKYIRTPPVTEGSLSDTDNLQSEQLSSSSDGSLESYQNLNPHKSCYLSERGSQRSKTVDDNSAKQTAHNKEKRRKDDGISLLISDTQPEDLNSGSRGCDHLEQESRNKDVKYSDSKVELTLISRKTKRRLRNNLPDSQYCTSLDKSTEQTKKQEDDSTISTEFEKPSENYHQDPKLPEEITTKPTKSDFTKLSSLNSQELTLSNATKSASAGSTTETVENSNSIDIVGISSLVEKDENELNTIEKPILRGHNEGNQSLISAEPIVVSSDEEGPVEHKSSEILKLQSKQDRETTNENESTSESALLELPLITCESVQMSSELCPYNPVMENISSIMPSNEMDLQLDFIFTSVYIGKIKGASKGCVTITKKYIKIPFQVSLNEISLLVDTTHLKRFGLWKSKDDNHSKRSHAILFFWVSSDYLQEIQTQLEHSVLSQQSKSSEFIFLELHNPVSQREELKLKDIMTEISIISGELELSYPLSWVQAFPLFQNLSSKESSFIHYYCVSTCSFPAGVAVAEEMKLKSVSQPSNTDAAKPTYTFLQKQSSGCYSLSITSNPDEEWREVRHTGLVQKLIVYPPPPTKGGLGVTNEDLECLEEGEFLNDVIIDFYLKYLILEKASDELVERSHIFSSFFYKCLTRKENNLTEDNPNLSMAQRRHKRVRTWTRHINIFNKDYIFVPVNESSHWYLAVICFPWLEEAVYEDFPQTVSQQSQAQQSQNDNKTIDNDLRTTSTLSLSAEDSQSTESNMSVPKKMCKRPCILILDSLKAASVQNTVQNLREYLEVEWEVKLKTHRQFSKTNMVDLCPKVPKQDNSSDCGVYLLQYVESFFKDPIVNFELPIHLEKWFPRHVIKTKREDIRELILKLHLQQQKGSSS
Nature of the assay: SENP7 protease inhibitors, SAR follow-up, biochemical, luminescence (AID 504497). It is filed as functional.

Assay [5] addresses T3, Sentrin-specific protease 8 (Homo sapiens, UniProt Q96LD8).
T3 sequence (Q96LD8 whole entry): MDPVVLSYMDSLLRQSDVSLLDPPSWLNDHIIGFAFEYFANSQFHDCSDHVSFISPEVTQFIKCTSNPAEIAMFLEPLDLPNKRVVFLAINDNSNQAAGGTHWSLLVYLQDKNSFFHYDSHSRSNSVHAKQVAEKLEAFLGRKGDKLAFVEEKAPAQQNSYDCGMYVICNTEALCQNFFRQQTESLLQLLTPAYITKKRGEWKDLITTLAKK
Nature of the assay: SENP8 protease inhibitors, SAR follow-up, biochemical, luminescence (AID 504501). It is filed as functional.

The target in the next assay is T4, Estrogen receptor (Homo sapiens, UniProt P03372).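 Note: potency for inhibiting coactivator peptide recruitment to the receptor.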
T4 sequence (P03372 whole entry): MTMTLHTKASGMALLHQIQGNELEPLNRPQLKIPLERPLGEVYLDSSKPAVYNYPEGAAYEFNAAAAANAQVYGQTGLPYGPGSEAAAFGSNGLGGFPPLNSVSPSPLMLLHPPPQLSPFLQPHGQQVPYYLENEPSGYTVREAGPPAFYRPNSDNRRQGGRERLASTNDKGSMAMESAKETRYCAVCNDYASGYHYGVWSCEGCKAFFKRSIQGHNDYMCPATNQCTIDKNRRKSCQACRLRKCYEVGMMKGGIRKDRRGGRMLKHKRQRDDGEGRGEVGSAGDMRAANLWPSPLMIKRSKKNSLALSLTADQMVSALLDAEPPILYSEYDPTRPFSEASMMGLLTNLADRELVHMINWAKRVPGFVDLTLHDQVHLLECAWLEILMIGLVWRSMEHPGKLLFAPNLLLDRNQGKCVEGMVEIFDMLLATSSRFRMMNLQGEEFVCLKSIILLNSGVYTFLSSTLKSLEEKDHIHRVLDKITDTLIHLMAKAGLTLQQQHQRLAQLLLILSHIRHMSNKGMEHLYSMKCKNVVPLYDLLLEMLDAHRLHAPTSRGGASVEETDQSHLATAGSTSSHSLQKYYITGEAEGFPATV

Assay [6] concerns the target T5, Sentrin-specific protease 6 (Homo sapiens, UniProt Q9GZR1).
T5 sequence (Q9GZR1 whole entry): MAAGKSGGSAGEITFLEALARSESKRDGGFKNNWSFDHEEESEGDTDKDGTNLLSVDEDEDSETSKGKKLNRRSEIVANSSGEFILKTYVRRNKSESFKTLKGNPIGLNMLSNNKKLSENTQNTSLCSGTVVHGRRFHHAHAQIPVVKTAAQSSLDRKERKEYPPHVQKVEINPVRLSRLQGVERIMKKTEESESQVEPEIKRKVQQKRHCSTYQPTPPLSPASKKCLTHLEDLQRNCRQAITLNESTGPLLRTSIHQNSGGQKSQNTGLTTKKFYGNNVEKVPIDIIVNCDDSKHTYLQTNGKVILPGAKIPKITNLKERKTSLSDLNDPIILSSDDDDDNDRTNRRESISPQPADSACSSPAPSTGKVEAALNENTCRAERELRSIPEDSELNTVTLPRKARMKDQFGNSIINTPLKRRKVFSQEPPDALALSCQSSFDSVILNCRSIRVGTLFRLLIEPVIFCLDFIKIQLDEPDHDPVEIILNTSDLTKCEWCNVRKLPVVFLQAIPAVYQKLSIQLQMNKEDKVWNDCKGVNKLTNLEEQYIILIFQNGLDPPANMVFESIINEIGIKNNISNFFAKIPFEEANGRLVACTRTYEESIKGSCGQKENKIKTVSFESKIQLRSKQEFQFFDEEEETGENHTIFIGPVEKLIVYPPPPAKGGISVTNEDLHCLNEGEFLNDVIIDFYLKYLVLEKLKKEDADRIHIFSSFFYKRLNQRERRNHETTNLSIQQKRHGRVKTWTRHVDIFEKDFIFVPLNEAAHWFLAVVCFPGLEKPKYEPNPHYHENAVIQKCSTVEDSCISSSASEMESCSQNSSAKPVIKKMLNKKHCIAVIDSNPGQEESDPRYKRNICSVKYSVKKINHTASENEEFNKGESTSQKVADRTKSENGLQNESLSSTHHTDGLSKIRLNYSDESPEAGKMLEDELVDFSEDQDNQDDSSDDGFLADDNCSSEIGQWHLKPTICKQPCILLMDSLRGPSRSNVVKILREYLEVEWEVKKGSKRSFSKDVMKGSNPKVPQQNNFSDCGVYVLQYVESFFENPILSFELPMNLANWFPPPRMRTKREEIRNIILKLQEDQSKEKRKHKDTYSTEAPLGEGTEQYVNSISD
Nature of the assay: SAR Analysis of small molecule inhibitors of Sentrin-specific protease 6 (SENP6) using a Luminescent assay. [Related pubchem assays (depositor defined):AID2582, AID2599]. The format is functional.

The target in a further assay is T6, Caspase-3 (Homo sapiens, UniProt P42574).
T6 sequence (P42574 whole entry): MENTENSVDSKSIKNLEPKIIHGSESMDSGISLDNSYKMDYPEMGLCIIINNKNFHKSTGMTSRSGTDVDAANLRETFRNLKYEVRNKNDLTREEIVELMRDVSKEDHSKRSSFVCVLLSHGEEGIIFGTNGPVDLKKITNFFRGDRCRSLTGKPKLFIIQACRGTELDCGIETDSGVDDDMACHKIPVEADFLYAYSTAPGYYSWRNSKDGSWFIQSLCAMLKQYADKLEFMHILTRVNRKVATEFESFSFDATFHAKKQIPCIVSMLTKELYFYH
Nature of the assay: SAR Analysis of small molecule inhibitors of Sentrin-specific proteases (SENPs) using a Caspase-3 Selectivity assay. [Related pubchem assays (depositor defined):AID2540, AID2599, AID434973, AID489001]. The format is functional.

Calls of active or inactive are those of the source. Bounds are passed on as bounds.

A word on the EC50: it is the concentration needed to bring the measured effect to its halfway point. On to `COC(=O)c1nn(-c2ccc(-c3ccccc3)cc2)cc1O`, for which the EC50 is > 50 µM (not active) in the assay with HT-1080, 1.93 µM (active) in [1], 3.79 µM (active) in assay [2] and > 100 µM (not active) in [3].
As usually defined, the IC50 is the point on the concentration scale where inhibition reaches its midpoint. Turning to `CC1CCc2c(sc(NC(=O)c3ccc(Cn4cc(Br)cn4)o3)c2C(N)=O)C1` (stereo unspecified), the IC50 in assay [4] was > 99 µM (inactive); in assay [5], > 99 µM (inactive); at Estrogen receptor, > 50 µM (not active); in assay [6] it was > 99 µM (inactive); at Caspase-3, > 99 µM (inactive).
Take `Cc1cc(C)c(OCC(=O)Nc2cccc(O)c2)cc1C`: the EC50 in the assay with HT-1080 is > 50 µM (not active); in assay [3], 3.52 µM (active).
